Experimental data published in US20250051519A1, “SOLUTION ELECTROSPUN FIBERS, COMPOSITIONS COMPRISING THE SAME AND A PROCESS OF MANUFACTURING THEREOF” (UNIVERSITEIT GENT, priority 2021, published 2025).

Legend:
[1] = Sink in vitro dissolution test of flubendazole samples in 0.1 M HCl; assay type: physicochemical; details: after 10 minutes, sample containing 50 mg flubendazole in 900 ml 0.1 M HCl
Method: Samples were filtered through a 0.45 μm PTFE filter, diluted and consequently measured via UV-Vis spectroscopy. Experiments were performed in triplicate.

[2] = In vivo bioavailability study, oral capsules, plasma levels by LC-MS; details: dog; analyte Flu in plasma; oral capsule with 200 mg Flu, fasted Beagle dogs, n=5
Method: Capsules of a 00 size were filled with either 50 wt % Flu-PEtOx nanofibrous material or with pure crystalline Flu. Each capsule contained 200 mg of Flu. These capsules were administered to beagles in 2 different sessions with at least 8 days in between both sessions. The study was approved by the ethical commission for animal testing at Ghent University. Before the dogs were fed the capsules, a fasting time of 12 hours was set. Using an intravenous catheter in the vena cephalica blood samples of 3 ml were collected at different time intervalls of 0.5, 1, 2, 4, 6, 8, 12, 16, 20 and 24 hours after administration. Plasma samples were stored at −20° C. until analyzed using an LC-MS method.
A […] flubendazole nanofibrous amorphous solid dispersion was obtained by the solution electrospinning of PEtOx and Flu in a formic acid solvent system. The process conditions were a tip to collector distance of 15 cm, a flow rate of 0.12 ml/h and a voltage of 27.5 kV. Note that this high flubendazole loading was only reached when a PEtOx wt % was used which is lower compared to the minimal required polymer concentration for solution electrospinning pure PEtOx, as shown in Example 4. […] Concentrations of Flu and its two metabolites, H-Flu and R-Flu, were monitored.

Question: What does the source list for COC(=O)Nc1nc2cc(C(=O)c3ccc(F)cc3)ccc2[nH]1 [Flu, Flubendazole]?
Answer: Dissolution rate (10 min) [1]: 0.07 ± 0.03 µg/mL/min; Cmax [2]: 1.2 ± 0.4 ng/mL; Tmax [2]: 1 ± 0.6 h
